# Results as given in patent US11291666B2, “Uses” (INTRA-CELLULAR THERAPIES, INC., priority 2016, dated 2022).
# Test system: C57Bl/6 mice
# Assay: Chronic unpredictable stress (CUS) model, inflammatory markers and depression-like behaviors
# Format: in vivo, mouse
# Conditions: 10 mg/kg i.p. daily
# Text: This experiment compares the impact of chronic stress on the brain cytokine/chemokine profile in wild type mice vs PDE1B conditional knockout mice.
# PDE1B conditional knockout mice are described in Siuciak J A, et al. “Behavioral and neurochemical characterization of mice deficient in the phosphodiesterase-1B (PDE1B) enzyme.” Neuropharmacology. 2007 July; 53(1):113-24. Protocols for CUS and other models of chronic stress are described in Monteiro, et al., “An Efficient Chronic Unpredictable Stress Protocol to Induce Stress-Related Responses in C57BL/6 Mice,” Front Psychiatry. 2015; 6: 6 and in Mann et al., “Chronic social defeat, but not restrain stress, alters bladder function in mice” Physiol. Behav. 2015; Oct. 15; 150: 83-92.
# Generally, wild type (control) mice and PDE1B conditional knockout mice, as appropriate, are exposed to the chronic stress using restraint stress in shallow water model (RSSW) as described by Mann et al (2015), above. […] Control mice for these experiments are also maintained in single housing cages. In accordance the stress protocol, the mice are monitored for the depression-like behavior profile. Mice are then sacrificed and tissue samples are collected. […] Brain tissue and serum is analyzed for a panel of markers, including pro-inflammatory and anti-inflammatory cytokines and chemokines.
# C57Bl/6 mice are subjected to the CUS protocol (14d, as described) or sham treatment, evaluated for depression-like behaviors at a specified time points, and sacrificed for collection of blood (serum preparation) and brain collection. Serum is analyzed for corticosterone (CORT) levels and other inflammatory markers. The brain is analyzed for a panel of inflammatory markers by qPCR (mRNA) and MSD (protein).
# Mice are evaluated for depression-like behaviors at a specified time point to test the impact of the CUS protocol and of the PDE1 inhibitor treatment on the depression-like phenotype. […] Serum is analyzed for CORT levels and other inflammatory markers. Brain samples are analyzed for a panel for a panel of inflammatory markers by qPCR (mRNA) and MSD (protein). […]
compound,measurement,setting,value
CN1C(=O)c2c(nn(Cc3ccc(-c4cccc(F)n4)cc3)c2Nc2ccccc2)N2C1=N[C@@H]1CCC[C@@H]12 [Compound 214],effect on tissue and serum markers and behaviors in PDE1B KO mice,"PDE1B KO mice, CUS",no significant effect
same,CUS-induced CNS and serum markers (proinflammatory),"normal C57Bl/6 mice, CUS 14d",significantly suppresses
same,expression of depression-like behaviors,"normal C57Bl/6 mice, CUS 14d",significantly suppresses
